According to article PMC5778463 (Nucleic Acids Research, 2017):
Values joined by “and” are separate entries in the source; they are usually repeats but may differ in a detail not shown here. Identical values can stand only once.

Experiments:
[1] = test system: isolated influenza A PB2 cap-binding domain; conditions: cited from earlier work
influenza B strains = conditions: cited from earlier work
[2] = molecular target: B/Memphis cap-midlink double domain (Influenza B virus, UniProt Q5V8X3); assay: biochemical; assay type: binding, influenza B/Memphis/13/03
Chain of B/Memphis cap-midlink double domain (Q5V8X3 249-540 limits assumed): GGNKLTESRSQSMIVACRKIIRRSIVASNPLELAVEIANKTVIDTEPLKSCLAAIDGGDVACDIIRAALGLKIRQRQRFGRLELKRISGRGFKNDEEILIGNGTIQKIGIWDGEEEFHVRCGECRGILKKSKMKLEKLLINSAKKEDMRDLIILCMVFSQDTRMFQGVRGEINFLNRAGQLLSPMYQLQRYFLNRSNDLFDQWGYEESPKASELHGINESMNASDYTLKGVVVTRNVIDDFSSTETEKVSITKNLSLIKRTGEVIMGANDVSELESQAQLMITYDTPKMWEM

O=C(O)[C@H]1C2CCC(CC2)[C@@H]1Nc1nc(-c2c[nH]c3ncc(F)cc23)ncc1F [VX-787]
times tighter binding than m^7GTP [1]: ~60 times | Kd ([1]; read-out: affinity to cap-binding domain alone): ~24 nM and 24 nM | potency against influenza B strains (influenza B strains): no potency | Kd [2]: 1200 nM
